Series [1] relates to Leishmania mexicana cells. Nature of the series: Comet assay of Leishmania mexicana cells. The format is cell-based. Also noted: Comet tail length, mean (vary) / Comet tail length, median (Q50): unit not given here. The note with it: L. mexicana, 24 h at MIC; for Comet tail length, mean (vary) / Comet tail length, median (Q50): MMS 0.011%, Kruskal-Wallis $means; for Genotoxic effect (DNA breaks) in comet assay: in words. The protocol: We quantified DNA breaks by a comet assay to determine if these compounds are genotoxic. Here, L. mexicana cells were exposed for 24 h to MIC concentrations previously determined (see Materials and Methods Section) for each compound. Figure 1 represents the measurements obtained for tail length. All compounds generated DNA breaks expect 4s. […] Samples with DMSO and MMS (0.011%) were included as controls. Some representative pictures are shown at Figure S4. The effect of 4p could not be determined because the cells appear to be very damaged. The data was subjected via a Kruskal–Wallis one-way ANOVA (Statistical Analyses S2). […] These observations support a mechanism of action through the generation of DNA damage.
For leishmania, a method previously described for yeast was adapted. Briefly, after incubating the cells in presence of the compounds for 24 h, cells were collected and washed with buffer S (1 M sorbitol, 25 mM KH2PO4 in ultrapure water and adjust to pH 6.5 with NaOH). The pellet was resuspended in 400 µL of 1.5% LMA and 40 µL was spread (second layer) onto previously agarose-coated slides (first layer).
Slides were immersed in cold lysis buffer (30 mM NaOH, 1 M NaCl, 0.05 % (w/v) lauroylsarcosine, 50 mM EDTA, and 10 mM Tris–HCl, pH 10) for 25 min and then in cold electrophoresis alkaline buffer (30 mM NaOH, 10 mM EDTA, and 10 mM Tris–HCl, pH 10). They were then subjected to electrophoresis at 26V and 300 mA. Slides were immersed in neutralization buffer (10 mM Tris–HCl, pH 7.4; prepared in advance and stored at 4 °C) for 10 min at room temperature. The cells were then treated with proteinase K (20 min, 37 °C in humid chamber), followed by a new neutralization step. To dehydrate the slides, they were immersed in EtOH 90% and EtOH absolute for 10 min each. Finally, the slides were stained with Sybr Gold 1X.
The DNA migration was analyzed using a LEICA microscope with fluorescence (40×) by scoring 100 cells per slide in duplicate. The tail moment parameter was then analyzed by the Comet Score software.

For series [2], the system named is PC-3. Briefly: MTS cell viability assay on PC-3 cells. The format is cell-based. The note with it: Homo sapiens, 48 h; for inhibition at 100 µM: Dox 1 µM, mean ± SEM, NA = no activity, read-out: Percentage (%) of inhibition, PC-3; for IC50: 15-150 µM, mean ± SEM of triplicates. A general note: Tetrazolium assays rely on reduction of a dye to a coloured formazan, in cell work by metabolically active cells.

Series [3] deals with A-549. Briefly: MTS cell viability assay on A-549 cells. The format is cell-based. The note with it: Homo sapiens, A549; 100 µM, 48 h; Dox 1 µM; mean ± SEM; NA = no activity; read-out: Percentage (%) of inhibition, A-549.
Series [4] deals with promastigotes of Leishmania mexicana. Nature of the series: Leishmanicidal activity, MTT assay on promastigotes. It is filed as cell-based. The note with it: for SI (Selectivity Index) = Citotoxic activity/Leishmanicidal activity: CC50 RAW / IC50 L. mexicana; for IC50: Leishmania mexicana. The protocol: The leishmanicidal activity of all compounds was evaluated by measuring promastigotes’ mitochondrial activity using MTT colorimetric assay as described previously. In this study, promastigotes from Leishmania mexicana were used. The species were confirmed by amplifying and sequencing cytochrome b gene. Promastigotes were cultured at 25 °C in Schneider’s Drosophila Medium (Gibco, Invitrogen, Carlsbad, CA, USA) supplemented with 10% fetal bovine serum (Eurobio, Les Ulis, France). The medium was renewed every third day. Parasite density was determined by counting the cells using a Neubauer chamber.
Into each well of a 96-well plate were dispensed 1 × 10^6 parasites/well. A stock solution of the compounds was prepared in DMSO (Sigma Aldrich, Saint Louis, MO, USA), and serial dilutions were added to the parasite suspension, leading to concentrations ranging from 100 to 0.001 µM, keeping the solvent concentration at 0.5%. The final volume was 200 µL for each well and triplicate conditions were carried out. Amphotericin B (Gibco) treatment (1 µM) untreated parasites and DMSO 0.5% were used as positive and negative controls, respectively. After exposure to the compounds for 48 h in culture medium, 20 µL of a solution of 5 mg/mL MTT dissolved in PBS were added to each well. The plate was incubated at 25 °C for 2 h in darkness. The plate was then centrifuged at 4400 rpm for 10 min and the culture medium was then aspirated; 50 µL of DMSO were added into each well to solubilize the formazan crystals and the plate was shaken for 5 min and then it was measured by recording changes in absorbance at 570 nm using a microplate reader Cytation 5 (BioTek) spectrophotometer. A reference wavelength of 630 nm was used as background subtraction. Optical densities were analyzed because the quantity of formazan is directly proportional to the number of viable parasites. Data were analyzed with the statistical software GraphPad Prism 7.02 (GraphPad Software, Corp.).

Setting [5] is: read-out: IC50 original values, x.1 (Mean).
Where [6] appears, read: L. mexicana promastigotes, 48 h, MTT, read-out: Leishmanicidal Activity IC50.

A word on the melting point: it is the temperature, or range, at which the solid turns liquid. What is called inhibition is the change of the read-out against control, counted positive when it falls. The IC50 is the concentration that inhibits the measured activity by half.

Entries after “also recorded” stand apart in the source; their conditions may differ. Read-outs that look alike come from different tables or passages of the source.

Take `CC1=NN(c2ccccc2)C(=O)[C@@]12C(c1ccc(C(F)(F)F)cc1)[C@@]21C(=O)N(c2ccccc2)N=C1C` (relative stereo) [4r, (5R*,6R*)-11-(4-Trifluoromethylphenyl)-4,10-dimethyl-2,8-diphenyl-2,3,8,9-tetraazadispiro[4.0.4.1]undeca-3,9-diene-1,7-dione]: the melting point was in the range of 154.6 to 156.5 °C. In addition, in series [1], the “Comet tail length, mean (vary)” value came to 96310000 and the “Comet tail length, median (Q50)” value is on record as 98500000. Moreover, in series [2], the inhibition at 100 µM came to 54.7 ± 1.95% and it took 49.8 ± 5.51 µM to reach half-maximal inhibition (IC50). Besides, in series [3], the inhibition at 100 µM worked out at 28.6 ± 3.71%. Further, the “SI (Selectivity Index) = Citotoxic activity/Leishmanicidal activity” value in series [4] is reported as 34.2. Moreover, the concentration for half-maximal inhibition (IC50) in series [4] (setting [5]) amounted to 0.188 µM. Moreover, the IC50 in series [4] (setting [6]) worked out at 0.19 ± 0.06 µM.

Take `CC1=NN(c2ccccc2)C(=O)[C@@]12C(c1ccc(OC(F)(F)F)cc1)[C@@]21C(=O)N(c2ccccc2)N=C1C` (relative stereo) [4s, (5R*,6R*)-11-(4-Trifluoromethoxyphenyl)-4,10-dimethyl-2,8-diphenyl-2,3,8,9-tetraazadispiro[4.0.4.1]undeca-3,9-diene-1,7-dione]: the melting point fell in the range of 150.5 to 151.5 °C. Moreover, in series [1], the “Genotoxic effect (DNA breaks) in comet assay” value (from here on “Genotoxic effect (DNA breaks)”) is “weakest”; the “Comet tail length, mean (vary)” value came out at 39720000; the “Comet tail length, median (Q50)” value amounted to 39500000. In series [2], the inhibition at 100 µM came out at 49.7 ± 2.11% and the IC50 was 70.3 ± 1.9 µM. The inhibition at 100 µM in series [3] turned out to be 24.4 ± 1.36%. In addition, in series [4], the “SI (Selectivity Index) = Citotoxic activity/Leishmanicidal activity” value came out at 45.3. Further, the IC50 in series [4] (setting [5]) was 0.189 µM. Further, in series [4] (setting [6]), the IC50 was 0.19 ± 0.07 µM.

For the molecule `CC1=NN(c2ccccc2)C(=O)[C@@]12C(c1cccc(F)c1)[C@@]21C(=O)N(c2ccccc2)N=C1C` (relative stereo) [4t, (5R*,6R*)-11-(3-Fluorophenyl)-4,10-dimethyl-2,8-diphenyl-2,3,8,9-tetraazadispiro[4.0.4.1]undeca-3,9-diene-1,7-dione], the melting point was in the range of 152.1 to 153 °C. For the same molecule, in series [1], the “Genotoxic effect (DNA breaks)” value is on record as “biggest genotoxic effects”; the “Comet tail length, mean (vary)” value is reported as 124410000; the “Comet tail length, median (Q50)” value came to 116000000. Further, in series [2], the inhibition at 100 µM came out at 13.8 ± 2.87%. In addition, the inhibition at 100 µM in series [3] is 3.43 ± 2.42%. Also, the “SI (Selectivity Index) = Citotoxic activity/Leishmanicidal activity” value in series [4] amounted to 12.3. Besides, in series [4] (setting [5]), the IC50 turned out to be 0.216 µM. In addition, the IC50 in series [4] (setting [6]) turned out to be 0.22 ± 0.05 µM.

The molecule `CSc1ccc(C2[C@]3(C(=O)N(c4ccccc4)N=C3C)[C@@]23C(=O)N(c2ccccc2)N=C3C)cc1` (relative stereo) [4u, (5R*,6R*)-11-(4-Thiomethylphenyl)-4,10-dimethyl-2,8-diphenyl-2,3,8,9-tetraazadispiro[4.0.4.1]undeca-3,9-diene-1,7-dione] came in with a melting point of 154.4 to 157.3 °C. In series [1], the “Genotoxic effect (DNA breaks)” value is “highest genotoxic activity; also recorded: strongest effects”; the “Comet tail length, mean (vary)” value is listed as 179560000; the “Comet tail length, median (Q50)” value is reported as 177500000. Besides, the inhibition at 100 µM in series [2] is 38.7 ± 3.77%. Further, the inhibition at 100 µM in series [3] was 3.64 ± 1.81%. Besides, the “SI (Selectivity Index) = Citotoxic activity/Leishmanicidal activity” value in series [4] is listed as 22.1. Further, the IC50 in series [4] (setting [5]) came to 0.417 µM. The IC50 in series [4] (setting [6]) is 0.42 ± 0.25 µM.
